Source: US6420563B1, “Small molecule modulators of G protein-coupled receptor six” (Arena Pharmaceuticals, Inc., priority 1998, dated 2002)
Like-named read-outs stand apart in the source and are kept apart here.

Columns and labels:
GPR6:Gsα-Fusion Protein = biological target: T1, GPR6:Gsα-Fusion Protein (Homo sapiens, UniProt P46095); assay: [35S]GTPγS membrane binding assay (Example 4A); format: biochemical
T1 construct: expressed in transfected cells
Method: The assay plates were then centrifuged at 400 rpm for 15 minutes at room temperature and then subsequently aspirated and counted in a scintillation counter.
Membranes expressing the GPCR6:Gsα-Fusion Protein (see Example 2) and for use in the direct identification of candidate compounds as inverse agonists, agonists or partial agonists were prepared as follows:
All materials were kept on ice throughout the procedure. Firstly, the media was aspirated from a confluent monolayer of cells, followed by rinse with 10 ml cold PBS, followed by aspiration. Thereafter, 5 ml of membrane Scrape Buffer was added to scrape cells; this was followed by transfer of cellular extract into 50 ml centrifuge tubes (centrifuged at 20,000 rpm for 17 minutes at 4° C.). Thereafter, the supernatant was aspirated and the pellet was resuspended in 30 ml Membrane Wash Buffer followed by centrifuge at 20,000 rpm for 17 minutes at 4° C. The supernatant was then aspirated and the pellet resuspended in Binding Buffer. This was then homogenized using a Brinkman polytron™ homogenizer (15-20 second bursts until the all material was in suspension). This is referred to herein as “Membrane Protein”.
Candidate compounds (Tripos, Inc., St. Louis, Mo.) were received in 96-well plates (these can be frozen at −80° C.). Membrane Protein (or membranes with expression vector excluding the GPR6:Gsα-Fusion Protein, as control), were homogenized briefly until in suspension. Protein concentration was then determined using the Bradford Protein Assay set forth above. […] Thereafter, 100 ul GDP Buffer was added to each well of a Wallac Scintistrip™ (Wallac). A 5 ul pin-tool was then used to transfer 5 ul of a candidate compound into such well (i.e., 5 ul in total assay volume of 200 ul is a 1:40 ratio such that the final screening concentration of the candidate compound is 10 uM). Again, to avoid contamination, after each transfer step the pin tool was rinsed in three reservoirs comprising water (1×), ethanol (1×) and water (2×)—excess liquid should be shaken from the tool after each rinse and dried with paper towels and kimwipes™. Thereafter, 50 ul of Membrane Protein was added to each well (a control well comprising membranes without the GPCR Fusion Protein is also utilized), and pre-incubated for 5-10 minutes at room temperature (the plates were covered with foil in that the candidate compounds obtained from Tripos are light sensitive). Thereafter, 50 ul of [^35S]GTPγS (0.6 nM) in Binding Buffer was added to each well, followed by incubation on a shaker for 60 minutes at room temperature (again, in this example, plates were covered with foil). The assay was then stopped by spinning of the plates at 4000 RPM for 15 minutes at 22° C. The plates were then aspirated with an 8 channel manifold and sealed with plastic plate covers. The plates were then read on a Wallac 1450 using setting “Prot. #37” (as per manufacturer instructions).
The initial or “primary” screen designed to directly identify, e.g., human GPR6 receptor inverse agonists, consisted of the membrane-based GTPγS binding assay of Example 4A utilizing membranes prepared from 293 stable cells. Candidate compounds directly identified as inhibiting receptor-mediated increases in GTPγS as set forth below were considered active “leads”.
It is preferred that following such direct identification, IC50 (inverse agonist) or EC50 (agonist) values be determined; those having ordinary skill in the art are credited with utilizing IC50 and EC50 assay protocols of choice. FIG. 4 provides a representative IC50 curve for compound ARE112 using the assay protocol of Example 4A.

GPR6 = biological target: T2, GPR6 (Homo sapiens, UniProt P46095); assay: membrane-based cyclic AMP confirmation assay (Example 4C); format: biochemical; details: mean +/- standard deviation (number of assays in brackets); read-out: IC50 Values Cyclic AMP Assay Example 4C
T2 construct: expressed in transfected cells; 293 cells are used elsewhere
Description: Using an independent assay approach to provide confirmation of a directly identified candidate compound as set forth above, it is preferred that a confirmation assay then be utilized. In this case, the preferred confirmation assay is membrane-based cyclic AMP (cAMP) assay.
A modified Flash Plate™ Adenylyl Cyclase kit (New England Nuclear; Cat. No. SMP004A) was utilized for confirmation of candidate compounds directly identified as inverse agonists and agonists to endogenous, constitutively activated orphan GPCRs in accordance with the following protocol.
Transfected stable cells were harvested approximately three days after transfection. Membranes were prepared by homogenization of suspended cells in buffer containing 20 mM HEPES, pH 7.4 and 10 mM MgCl2. Homogenization was performed on ice using a Brinkman Polytron™ for approximately 10 seconds. The resulting homogenate was centrifuged at 20,000 rpm for 20 minutes at 4° C. The resulting pellet was then resuspended in buffer containing 20 mM HEPES, pH 7.4 and 0.1 mM EDTA, homogenized for 10 seconds, followed by centrifugation at 20,000 rpm for 20 minutes at 4° C. The resulting pellet can be stored at −80° C. until utilized. On the day of direct identification screening, the membrane pellet is slowly thawed at room temperature, resuspended in buffer containing 20 mM HEPES, pH 7.4, 100 mM NaCl and 10 mM MgCL2, to yield a final protein concentration of 0.60 mg/ml (the resuspended membranes are placed on ice until use).
Candidate compounds identified as per above (if frozen, thawed at room temperature) were added to plate wells (3 μl/well; 12 μM final assay concentration), together with 50 μl Membrane Protein (30 μg/well) and 50 μl of Assay Buffer. This admixture was then incubated for 30 minutes at room temperature, with gentle shaking.
Following the incubation, 100 μl of Detection Buffer was added to each well, followed by incubation for 2-20 hours. Plates were subsequently aspirated and then counted in a Wallac MicroBeta™ plate reader using “Prot. #31” (as per manufacturer instructions).

[1] = Food/water intake and body weight in 24-hour food deprived rats, oral gavage (PO); format: in vivo, rat; details: for body weight gain (FIG. 10C): vehicle about 19.5 grams
Method: Based upon the in vivo data developed, oral bioavailability of compound ARE112 was determined. The compound was administered by oral gavage at doses ranging from 6.75 to 54 mg/kg. The data presented in FIGS. 9A and 9B support the conclusion that oral administration of ARE112 also decreases food intake in both food-deprived and non-food deprived rats. […] In FIG. 9A, rats were deprived 24 hours prior to oral administration of the compound. In this assay, the vehicle-treated rats at 2.5 hours consumed […] of food while injected rats; particularly rats administered with 27 and 54 mg/kg of ARE 112, ate about 6 and 4 grams, respectively. […] (See, FIG. 9A).
Several other GPR6 inverse agonists were also assessed under 24-hour food deprived conditions, with PO administration. The analogs listed below were tested at 200 μmol/kg, which is equivalent to 54 mg/kg. In addition, ARE114 was also assessed at […]. Data are summarized below in Table C:
In a second assay, tested under the same conditions, several other analogs were assessed at 100 μmol/kg.
In FIG. 10, rats were deprived 24 hours prior to oral administration of the compound. In this assay, analogs ARE130, ARE135, ARE136, and ARE140, were administered at a dose of 100 μmol/kg. Three analogs, particularly, ARE130, ARE136 and ARE140 evidenced a slow intake of food (e.g., about 1 to 1.5 grams every two hours) over an eight hour period post-administration; while the vehicle rat consumed about 2 to 2.5 grams food every two hours. Similar to the vehicle rat, analog ARE135, an opened ring structure, evidenced that over an eight hour period post-administration the rats increasingly consumed about 2.5 grams every two hours. (See, FIG. 10A). Furthermore, the body weight of the vehicle rat and administered rats with analog ARE135 gained about 19.5 grams. On the other hand, the closed ring structures evidenced a decrease in body weight gain as follows: ARE112-6 grams, ARE130-9 grams, ARE136-11 grams and ARE140-14 grams. See, FIG. 10C.

[2] = mean +/- standard deviation (number of assays in brackets), read-out: IC50 Values GTP Assay Example 4A
[3] = 200 μmol/kg PO, Table C, vehicle 14.5
[4] = 200 μmol/kg PO, Table C, vehicle 20.3
[5] = 200 μmol/kg PO, Table C, vehicle 22.9
[6] = mean +/- SD (number of assays), read-out: IC50 Values (Table E, GTP Assay of Example 4A)
[7] = 100 μmol/kg PO, second assay, Table D, vehicle 14.0
[8] = 100 μmol/kg PO, second assay, Table D, vehicle 19.25

T1 sequence (P46095 with tags, fused parts or gaps): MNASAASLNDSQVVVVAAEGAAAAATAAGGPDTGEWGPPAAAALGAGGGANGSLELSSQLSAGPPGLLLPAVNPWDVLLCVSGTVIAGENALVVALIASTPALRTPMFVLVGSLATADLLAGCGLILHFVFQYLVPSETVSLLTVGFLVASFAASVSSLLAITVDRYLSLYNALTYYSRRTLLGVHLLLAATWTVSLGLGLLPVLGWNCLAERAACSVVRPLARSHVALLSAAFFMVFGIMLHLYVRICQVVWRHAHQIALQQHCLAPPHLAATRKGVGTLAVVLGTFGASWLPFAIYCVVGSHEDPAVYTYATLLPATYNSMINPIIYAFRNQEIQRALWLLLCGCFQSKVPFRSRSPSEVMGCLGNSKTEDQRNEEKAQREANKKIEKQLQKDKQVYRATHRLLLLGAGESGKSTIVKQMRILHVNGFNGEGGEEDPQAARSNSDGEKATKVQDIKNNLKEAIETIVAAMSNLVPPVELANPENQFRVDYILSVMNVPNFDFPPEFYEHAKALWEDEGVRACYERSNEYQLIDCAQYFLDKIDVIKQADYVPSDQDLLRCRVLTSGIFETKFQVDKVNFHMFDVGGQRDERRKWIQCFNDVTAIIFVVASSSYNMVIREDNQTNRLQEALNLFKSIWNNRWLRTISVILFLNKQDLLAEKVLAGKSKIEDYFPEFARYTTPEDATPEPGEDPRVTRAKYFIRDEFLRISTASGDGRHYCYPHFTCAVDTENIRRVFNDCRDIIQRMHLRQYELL
T2 sequence (P46095 whole entry): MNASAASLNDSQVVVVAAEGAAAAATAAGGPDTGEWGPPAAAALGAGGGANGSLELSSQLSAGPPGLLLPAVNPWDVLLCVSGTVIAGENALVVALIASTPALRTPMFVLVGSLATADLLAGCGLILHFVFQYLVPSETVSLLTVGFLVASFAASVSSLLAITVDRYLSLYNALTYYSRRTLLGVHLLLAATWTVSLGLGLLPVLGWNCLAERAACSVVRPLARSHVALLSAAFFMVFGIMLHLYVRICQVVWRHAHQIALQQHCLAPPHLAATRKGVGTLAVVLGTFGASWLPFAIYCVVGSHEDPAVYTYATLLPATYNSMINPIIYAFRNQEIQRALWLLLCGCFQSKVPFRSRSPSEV

Row | Structure (SMILES) | IC50 (GPR6:Gsα-Fusion Protein; [2]) | IC50 (GPR6) | also measured
1 | O=C(NC(=S)N1CCNC1=S)c1ccc2ccccc2c1 [ARE135, N-(2-thioxo-imidazolidine-1-carbothioyl)-naphthyl-2-carboxamide] | 100000 nM | 710 nM | IC50 (GPR6:Gsα-Fusion Protein; [6]): 100000 nM; Cumulative Food Intake (g) (8 hr post administration) [1, 7]: 13.5 g; Body Weight Gain (g) (6 hr post administration) [1, 8]: 19.5 g; Cumulative Water Intake (g) (6 hr post administration) [1, 8]: 19.5 g; food intake every two hours ([1]; 100 μmol/kg oral, over eight hour period post-administration (FIG. 10A), vehicle about 2 to 2.5 grams): about 2.5 grams; water drunk (FIG. 10B) ([1]; 100 μmol/kg oral, comparable to vehicle): about 19 grams; body weight gain (FIG. 10C) ([1]; 100 μmol/kg oral): about 19.5 grams
2 | O=C(/N=C1\SSC2=NCCN21)c1cccc2ccccc12 [ARE138, N-(5,6-dihydro-3H-imidazo[2,1-c]-1,2,4-dithiazol-3-ylidene)-naphthyl-1-carboxamide] | 450 nM | 130 nM | 
3 | O=C(NC(=S)N1CCNC1=S)c1cc2ccccc2s1 [ARE139, N-(2-thioxo-imidazolidine-1-carbothioyl)-benzothiophen-2-carboxamide] | 260 nM | 4520 nM | 
4 | O=C(NC(=S)N1CCNC1=S)c1ccco1 [ARE143, N-(2-thioxo-imidazolidine-1-carbothioyl)-furan-2-carboxamide] | 68300 nM | 160000 nM | 
5 | Cc1noc(C)c1C(=O)/N=C1\SSC2=NCCN21 [ARE148] | 460 nM | 350 nM | 
6 | O=C(NC(=S)N1CCNC1=S)c1ccon1 [ARE149, N-(2-thioxo-imidazolidine-1-carbothioyl)-isoxazole-3-carboxamide] | 2430 nM | 5830 nM | 
7 | O=C(N=C1SSC2=NCCN21)c1ccon1 [ARE150, N-(5,6dihydro-3H-imidazo[2,1-c]-1,2,4-dithiazol-3-ylidene)-isoxazole-3-carboxamide] | 330 nM | 100 nM | 
8 | O=C(NC(=S)N1CCNC1=S)c1cccnc1 [ARE155, N-(2-thioxo-imidazolidine-1-carbothioyl)-pyridine-3-carboxamide] | 6560 nM | 850 nM | 

Further lines, with some results ahead:

Row | IC50 (GPR6:Gsα-Fusion Protein; [2]) | IC50 (GPR6) | Structure (SMILES) | also measured
9 | 440 nM | 170 nM | O=C(N=C1SSC2=NCCN21)c1ccccc1 [ARE114, N-(5,6-dihydro-3H-imidazo[2,1-c]-1,2,4-dithiazol-3-ylidene)-benzamide] | Cumulative Food Intake (g) (8 hr post administration) ([1]; 100 μmol/kg PO, Table C, vehicle 14.5): 10.8 g; Body Weight Gain (g) (6 hr post administration) ([1]; 100 μmol/kg PO, Table C, vehicle 20.3): 13.6 g; Cumulative Water Intake (g) (6 hr post administration) ([1]; 100 μmol/kg PO, Table C, vehicle 22.9): 15.3 g; Cumulative Food Intake (g) (8 hr post administration) [1, 3]: 8.68 g; Body Weight Gain (g) (6 hr post administration) [1, 4]: 6.18 g; Cumulative Water Intake (g) (6 hr post administration) [1, 5]: 10.6 g
10 | 640 nM | 270 nM | O=C(N=C1SSC2=NCCN21)c1ccc(Cl)cc1 [ARE120, N-(5,6-dihydro-3H-imidazo[2,1-c]-1,2,4-dithiazol-3-ylidene)-4-chlorobenzamide] | Cumulative Food Intake (g) (8 hr post administration) [1, 3]: 9.88 g; Body Weight Gain (g) (6 hr post administration) [1, 4]: 11.4 g; Cumulative Water Intake (g) (6 hr post administration) [1, 5]: 18.5 g
11 | 370 nM | 200 nM | O=C(N=C1SSC2=NCCN21)c1ccc(F)cc1 [ARE128, N-(5,6-dihydro-3H-imidazo[2,1-c]-1,2,4-dithiazol-3-ylidene)-4-fluorobenzamide] | Cumulative Food Intake (g) (8 hr post administration) [1, 3]: 7.93 g; Body Weight Gain (g) (6 hr post administration) [1, 4]: 4.03 g; Cumulative Water Intake (g) (6 hr post administration) [1, 5]: 8.5 g
12 | 220 nM | 240 nM | O=C(N=C1SSC2=NCCN21)c1cccc(F)c1 [ARE130, N-(5,6-dihydro-3H-imidazo[2,1-c]-1,2,4-dithiazol-3-ylidene)-3-fluorobenzamide] | IC50 (GPR6:Gsα-Fusion Protein; [6]): 220 nM; Cumulative Food Intake (g) (8 hr post administration) [1, 7]: 9.1 g; Body Weight Gain (g) (6 hr post administration) [1, 8]: 9.5 g; Cumulative Water Intake (g) (6 hr post administration) [1, 8]: 9.5 g; water drunk less than the vehicle animal (FIG. 10B) ([1]; 100 μmol/kg oral): about 10 grams; body weight gain (FIG. 10C) ([1]; 100 μmol/kg oral): 9 grams
13 | 410 nM | 190 nM | O=C(N=C1SSC2=NCCN21)c1ccc(F)cc1F [ARE134, N-(5,6-dihydro-3H-imidazo[2,1-c]-1,2,4-dithiazol-3-ylidene)-2,4-difluorobenzamide] | 
14 | 250 nM | 110 nM | O=C(N=C1SSC2=NCCN21)c1ccco1 [ARE144, N-(5,6dihydro-3H-imidazo[2,1-c]-1,2,4-dithiazol-3-ylidene)furan-2-carboxamide] | 
15 | 670 nM | 133 nM | O=C(N=C1SSC2=NCCN21)c1cccnc1 [ARE156, N-(5,6-dihydro-3H-imidazo[2,1-c]-1,2,4-dithiazol-3-ylidene)-pyridine-3-carboxamide] | 
